ChEMBL document CHEMBL3044672, “N9- and N7-(Chloromethyl Phenymethyl)Chloropurine Derivatives from , '-Dichloroxylenes: Synthesis and Anticancer Activity” (2005)

Key:
Assay type in all cases: functional
HT-29 = experiment: Cytotoxicity against Homo sapiens (human) HT-29 cells after 48 hr by sulforhodamine B assay; conditions: HT-29, 48 h; for CC50: read-out: LC50 (the source's name)
OVCAR-3 = experiment: Cytotoxicity against Homo sapiens (human) OVCAR3 cells after 48 hr by sulforhodamine B assay; conditions: OVCAR-3, 48 h
HCC 2998 = experiment: Cytotoxicity against Homo sapiens (human) HCC2998 cells after 48 hr by sulforhodamine B assay; conditions: HCC 2998, 48 h; for CC50: read-out: LC50 (the source's name)
DU-145 = experiment: Cytotoxicity against Homo sapiens (human) DU145 cells after 48 hr by sulforhodamine B assay; conditions: DU-145, 48 h
EKVX = experiment: Cytotoxicity against Homo sapiens (human) EKVX cells after 48 hr by sulforhodamine B assay; conditions: for CC50: read-out: LC50 (the source's name)
TK-10 = experiment: Cytotoxicity against Homo sapiens (human) TK10 cells after 48 hr by sulforhodamine B assay; conditions: TK-10, 48 h; for CC50: read-out: LC50 (the source's name)
A549 = experiment: Cytotoxicity against Homo sapiens (human) A549 cells after 48 hr by sulforhodamine B assay; conditions: A549, 48 h; for CC50: read-out: LC50 (the source's name)
RPMI-8226 = experiment: Cytotoxicity against Homo sapiens (human) RPMI8226 cells after 48 hr by sulforhodamine B assay; conditions: RPMI-8226, 48 h
OVCAR-8 = experiment: Cytotoxicity against Homo sapiens (human) OVCAR8 cells after 48 hr by sulforhodamine B assay; conditions: OVCAR-8, 48 h
IGROV-1 = experiment: Cytotoxicity against Homo sapiens (human) IGROV1 cells after 48 hr by sulforhodamine B assay; conditions: IGROV-1, 48 h
SK-MEL-2 = experiment: Cytotoxicity against Homo sapiens (human) SK-MEL-2 cells after 48 hr by sulforhodamine B assay; conditions: SK-MEL-2, 48 h
OVCAR-5 = experiment: Cytotoxicity against Homo sapiens (human) OVCAR5 cells after 48 hr by sulforhodamine B assay; conditions: OVCAR-5, 48 h; for CC50: read-out: LC50 (the source's name)
SK-MEL-5 = experiment: Cytotoxicity against Homo sapiens (human) SK-MEL-5 cells after 48 hr by sulforhodamine B assay; conditions: SK-MEL-5, 48 h
SF-539 = experiment: Cytotoxicity against Homo sapiens (human) SF539 cells after 48 hr by sulforhodamine B assay; conditions: SF-539, 48 h
CAKI-1 = experiment: Cytotoxicity against Homo sapiens (human) Caki1 cells after 48 hr by sulforhodamine B assay; conditions: CAKI-1, 48 h; for CC50: read-out: LC50 (the source's name)
A498 = experiment: Cytotoxicity against Homo sapiens (human) A498 cells after 48 hr by sulforhodamine B assay; conditions: A498, 48 h
M14 = experiment: Cytotoxicity against Homo sapiens (human) M14 cells after 48 hr by sulforhodamine B assay; conditions: M14, 48 h
UACC-257 = experiment: Cytotoxicity against Homo sapiens (human) UACC257 cells after 48 hr by sulforhodamine B assay; conditions: UACC-257, 48 h
MCF7 = experiment: Cytotoxicity against Homo sapiens (human) MCF7 cells assessed as cell growth at 10^-4 M after 48 hr by Alamar blue assay; conditions: MCF7, 48 h, read-out: Activity
LOX IMVI = experiment: Cytotoxicity against Homo sapiens (human) LOXIMVI cells after 48 hr by sulforhodamine B assay
SW-620 = experiment: Cytotoxicity against Homo sapiens (human) SW620 cells after 48 hr by sulforhodamine B assay; conditions: SW-620, 48 h; for CC50: read-out: LC50 (the source's name)
SNB-75 = experiment: Cytotoxicity against Homo sapiens (human) SNB75 cells after 48 hr by sulforhodamine B assay; conditions: SNB-75, 48 h; for CC50: read-out: LC50 (the source's name)
HCT-116 = experiment: Cytotoxicity against Homo sapiens (human) HCT116 cells after 48 hr by sulforhodamine B assay; conditions: HCT-116, 48 h; for CC50: read-out: LC50 (the source's name)
OVCAR-4 = experiment: Cytotoxicity against Homo sapiens (human) OVCAR4 cells after 48 hr by sulforhodamine B assay; conditions: OVCAR-4, 48 h
SF-295 = experiment: Cytotoxicity against Homo sapiens (human) SF295 cells after 48 hr by sulforhodamine B assay; conditions: SF-295, 48 h; for CC50: read-out: LC50 (the source's name)
K562 = experiment: Cytotoxicity against Homo sapiens (human) K562 cells after 48 hr by sulforhodamine B assay; conditions: K562, 48 h; for CC50: read-out: LC50 (the source's name)
SNB-19 = experiment: Cytotoxicity against Homo sapiens (human) SNB19 cells after 48 hr by sulforhodamine B assay; conditions: SNB-19, 48 h

## ClCc1ccccc1Cn1cnc2c(Cl)nc(Cl)nc21
HT-29
  GI50: 0.42 µM
  TGI: > 100 µM
  CC50: > 100 µM
OVCAR-3
  GI50: 0.21 µM
  LC50: 1.54 µM
  TGI: 0.51 µM
HCC 2998
  TGI: 3.38 µM
  CC50: 6.16 µM
DU-145
  GI50: 0.13 µM
  LC50: 6.31 µM
  TGI: 2.95 µM
EKVX
  GI50: 1.77 µM
  TGI: 3.23 µM
  CC50: 5.88 µM
TK-10
  GI50: 1.45 µM
  TGI: 2.88 µM
  CC50: 5.62 µM
A549
  GI50: 2.23 µM
  TGI: 4.67 µM
RPMI-8226
  GI50: 0.38 µM
  TGI: 1.54 µM
OVCAR-8
  GI50: 1.23 µM
  LC50 (concentration killing 50% of cells): 6.45 µM
  TGI: 2.81 µM
IGROV-1
  GI50: 1.54 µM
  LC50: 7.07 µM
  TGI: 3.31 µM
SK-MEL-2
  GI50: 2.18 µM
  LC50 (concentration killing 50% of cells): 8.51 µM
  TGI: 4.36 µM
OVCAR-5
  GI50: 1.58 µM
  TGI: 2.95 µM
  CC50: 5.62 µM
SK-MEL-5
  GI50: 0.42 µM
  LC50: 4.26 µM
  TGI: 1.54 µM
SF-539
  GI50: 1.47 µM
  LC50 (concentration killing 50% of cells): 5.62 µM
  TGI: 2.88 µM
CAKI-1
  GI50: 0.36 µM
  TGI: 0.89 µM
  CC50: 3.09 µM
A498
  GI50: 2.4 µM
  LC50 (lethal concentration, 50% cell kill): 9.55 µM
  TGI: 4.78 µM
M14
  GI50: 1.38 µM
  LC50: 5.75 µM
  TGI: 2.81 µM
UACC-257
  GI50: 1.82 µM
  LC50 (concentration killing 50% of cells): 8.51 µM
  TGI: 3.89 µM
MCF7
  growth at 100 µM: 0%
LOX IMVI
  GI50: 0.15 µM
  LC50: 0.85 µM
  TGI: 0.36 µM
SW-620
  GI50: 0.15 µM
  TGI: 0.35 µM
  CC50: 0.81 µM
SNB-75
  GI50: 1.54 µM
  TGI: 3.54 µM
HCT-116
  GI50: 0.19 µM
  TGI: 0.38 µM
  CC50: 0.75 µM
OVCAR-4
  GI50: 1.77 µM
  TGI: 3.63 µM
SF-295
  GI50: 1.9 µM
  TGI: 3.38 µM
  CC50: 6.02 µM
K562
  GI50: 0.15 µM
  TGI: 0.37 µM
  CC50: 0.91 µM

## ClCc1cccc(Cn2cnc3c(Cl)ncnc32)c1
HT-29
  GI50: 3.23 µM
  TGI: > 100 µM
  CC50: > 100 µM
OVCAR-3
  GI50: 1.62 µM
  LC50: 5.75 µM
  TGI: 3.02 µM
HCC 2998
  GI50: 0.4 µM
  TGI: 1.73 µM
  CC50: 5.49 µM
SNB-19
  GI50: 2.63 µM
  LC50: > 100 µM
  TGI: 12.6 µM
DU-145
  GI50: 11.2 µM
  LC50: 51.3 µM
  TGI: 24 µM
EKVX
  GI50: 18.6 µM
  TGI: 33.9 µM
  CC50: 63.1 µM
TK-10
  GI50: 4.57 µM
  TGI: 16.2 µM
  CC50: 46.8 µM
A549
  GI50: 19.5 µM
  TGI: 39.8 µM
  CC50: 79.4 µM
RPMI-8226
  GI50: 3.8 µM
  TGI: 16.2 µM
RPMI-8226; read-out: LC50 (the source's name)
  CC50: 87.1 µM
OVCAR-8
  GI50: 21.9 µM
  LC50 (concentration killing 50% of cells): 79.4 µM
  TGI: 41.7 µM
IGROV-1
  GI50: 9.33 µM
  LC50: > 100 µM
  TGI: 33.9 µM
SK-MEL-2
  GI50: 21.9 µM
  LC50 (concentration killing 50% of cells): > 100 µM
  TGI: 51.3 µM
OVCAR-5
  GI50: 2.08 µM
  TGI: 4.36 µM
  CC50: 8.91 µM
SK-MEL-5
  GI50: 2.29 µM
  LC50: 24.6 µM
  TGI: 6.31 µM
SF-539
  GI50: 19.9 µM
  LC50 (concentration killing 50% of cells): 61.7 µM
  TGI: 35.5 µM
CAKI-1
  GI50: 1.54 µM
  TGI: 2.95 µM
  CC50: 5.62 µM
A498
  GI50: 17.4 µM
  LC50 (lethal concentration, 50% cell kill): 58.9 µM
  TGI: 31.6 µM
M14
  GI50: 1.66 µM
  LC50: 6.6 µM
  TGI: 3.31 µM
UACC-257
  GI50: 20.4 µM
  LC50 (concentration killing 50% of cells): 67.6 µM
  TGI: 37.1 µM
LOX IMVI
  GI50: 1.95 µM
  LC50: 27.5 µM
  TGI: 5.01 µM
SW-620
  GI50: 2.13 µM
  TGI: 4.36 µM
  CC50: 8.91 µM
SNB-75
  GI50: 2.08 µM
  TGI: 4.57 µM
  CC50: 10 µM
HCT-116
  GI50: 1.47 µM
  TGI: 3.09 µM
  CC50: 6.31 µM
OVCAR-4
  GI50: 2.34 µM
  LC50 (concentration killing 50% of cells): 26.3 µM
  TGI: 5.75 µM
SF-295
  GI50: 3.23 µM
  TGI: 8.7 µM
  CC50: 29.5 µM
K562
  GI50: 3.54 µM
  TGI: 15.1 µM
  CC50: 75.9 µM

## ClCc1ccccc1Cn1cnc2nc(Cl)nc(Cl)c21
HT-29
  GI50: 0.4 µM
  TGI: > 100 µM
  CC50: > 100 µM
OVCAR-3
  GI50: 14.1 µM
  LC50: 53.7 µM
  TGI: 27.5 µM
HCC 2998
  GI50: 18.6 µM
  TGI: 35.5 µM
  CC50: 66.1 µM
DU-145
  LC50: 7.24 µM
EKVX
  GI50: 1.73 µM
  TGI: 3.23 µM
  CC50: 6.02 µM
TK-10
  GI50: 19.5 µM
  TGI: 33.9 µM
  CC50: 60.2 µM
A549
  GI50: 2.81 µM
  TGI: 5.75 µM
  CC50: > 100 µM
RPMI-8226
  GI50: 0.21 µM
  TGI: 0.63 µM
OVCAR-8
  GI50: 2.75 µM
  LC50 (concentration killing 50% of cells): 75.9 µM
  TGI: 7.07 µM
IGROV-1
  GI50: 2.88 µM
  LC50: 9.54 µM
  TGI: 5.24 µM
SK-MEL-2
  GI50: 2.75 µM
  LC50 (concentration killing 50% of cells): > 100 µM
  TGI: 5.75 µM
OVCAR-5
  GI50: 2.69 µM
  TGI: 5.75 µM
  CC50: 28.8 µM
SK-MEL-5
  GI50: 0.74 µM
  LC50: 5.49 µM
  TGI: 2.18 µM
SF-539
  GI50: 2.13 µM
  LC50 (concentration killing 50% of cells): 8.31 µM
  TGI: 4.26 µM
CAKI-1
  GI50: 19.5 µM
  TGI: 34.7 µM
  CC50: 61.6 µM
A498
  GI50: 2.51 µM
  LC50 (lethal concentration, 50% cell kill): 19.5 µM
  TGI: 5.88 µM
M14
  GI50: 1.86 µM
  LC50: 6.45 µM
  TGI: 3.46 µM
UACC-257
  GI50: 1.99 µM
  LC50 (concentration killing 50% of cells): 8.7 µM
  TGI: 4.16 µM
MCF7
  growth at 100 µM: 0%
LOX IMVI
  GI50: 0.16 µM
  LC50: 0.72 µM
  TGI: 0.35 µM
SW-620
  GI50: 0.26 µM
  TGI: 0.67 µM
  CC50: 4.67 µM
SNB-75
  GI50: 1.9 µM
  TGI: 4.46 µM
  CC50: > 100 µM
HCT-116
  GI50: 1.86 µM
  TGI: 4.07 µM
OVCAR-4
  GI50: 2.13 µM
  LC50 (concentration killing 50% of cells): > 100 µM
  TGI: 5.12 µM
SF-295
  GI50: 19.9 µM
  TGI: 35.5 µM
  CC50: 61.6 µM
K562
  GI50: 0.25 µM
  TGI: 0.69 µM
  CC50: > 100 µM
